# In patent US20040229791A1, “Compositions and methods of modulating TGF-beta activity by fatty acids” (priority 2002, published 2004):
# Experiments:
# [1] = biological target: T1, α2M* and nerve growth factor (NGF) (Homo sapiens, UniProt P01023); assay: Complex formation between α2M* and nerve growth factor; assay type: binding
# T1 sequence (P01023 24-1474): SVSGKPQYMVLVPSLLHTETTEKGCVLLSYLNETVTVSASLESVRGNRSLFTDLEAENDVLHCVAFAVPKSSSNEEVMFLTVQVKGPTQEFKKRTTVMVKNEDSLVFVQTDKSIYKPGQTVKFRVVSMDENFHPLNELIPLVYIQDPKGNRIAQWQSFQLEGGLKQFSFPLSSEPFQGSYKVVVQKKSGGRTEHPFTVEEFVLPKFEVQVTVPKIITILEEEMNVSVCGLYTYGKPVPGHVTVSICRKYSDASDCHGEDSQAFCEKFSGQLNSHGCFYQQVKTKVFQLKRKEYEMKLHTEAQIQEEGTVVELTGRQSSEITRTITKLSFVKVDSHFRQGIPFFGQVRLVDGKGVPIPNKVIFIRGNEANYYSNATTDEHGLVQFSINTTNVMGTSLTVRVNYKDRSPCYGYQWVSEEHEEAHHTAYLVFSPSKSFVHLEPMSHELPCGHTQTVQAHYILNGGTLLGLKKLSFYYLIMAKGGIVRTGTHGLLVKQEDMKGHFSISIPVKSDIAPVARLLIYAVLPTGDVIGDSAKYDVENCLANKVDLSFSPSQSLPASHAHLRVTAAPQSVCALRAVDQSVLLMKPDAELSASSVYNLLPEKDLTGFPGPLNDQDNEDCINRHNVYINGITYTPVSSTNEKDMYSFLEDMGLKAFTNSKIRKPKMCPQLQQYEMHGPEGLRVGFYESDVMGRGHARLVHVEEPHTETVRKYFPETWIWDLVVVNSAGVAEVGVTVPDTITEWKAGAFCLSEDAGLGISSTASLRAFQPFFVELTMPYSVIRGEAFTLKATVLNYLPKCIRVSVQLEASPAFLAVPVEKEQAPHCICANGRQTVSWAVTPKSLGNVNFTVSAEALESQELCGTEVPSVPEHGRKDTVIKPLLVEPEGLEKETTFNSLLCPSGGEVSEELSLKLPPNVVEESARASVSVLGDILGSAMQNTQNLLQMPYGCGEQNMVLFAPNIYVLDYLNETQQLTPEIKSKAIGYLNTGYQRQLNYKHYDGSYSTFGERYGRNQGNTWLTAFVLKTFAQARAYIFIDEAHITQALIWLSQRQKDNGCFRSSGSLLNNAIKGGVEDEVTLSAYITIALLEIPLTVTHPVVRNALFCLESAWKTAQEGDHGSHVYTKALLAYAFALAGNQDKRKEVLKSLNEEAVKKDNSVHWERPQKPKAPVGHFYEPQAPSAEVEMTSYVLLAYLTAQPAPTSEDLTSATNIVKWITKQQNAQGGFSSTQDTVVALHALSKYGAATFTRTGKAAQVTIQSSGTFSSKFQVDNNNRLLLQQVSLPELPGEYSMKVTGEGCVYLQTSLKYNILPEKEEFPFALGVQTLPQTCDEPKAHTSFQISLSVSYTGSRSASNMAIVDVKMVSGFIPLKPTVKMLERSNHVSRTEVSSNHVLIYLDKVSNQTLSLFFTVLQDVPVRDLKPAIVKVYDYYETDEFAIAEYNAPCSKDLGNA
# 125I-TGF-β2-α2M* complex = biological target: T2, 125I-TGF-β2-α2M* complex (Homo sapiens, UniProt P01023); assay: Dissociation of preformed 125I-TGF-β2-α2M* complex; assay type: binding; settings: added after 30 min preincubation of complex
# T2 construct: was purified from pooled citrate-treate human plasma; from tissue; host or cells: pooled citrate-treated human plasma
# T2 sequence (P01023 24-1474): T1 sequence (P01023 24-1474)
# Mv1Lu cells = assay: [Methyl-3H]-thymidine incorporation assay, TGF-β2-induced growth inhibition; assay type: cell-based, mink
# Description: The levels of TGF ? β and ? 2M* also increase dramatically. α2M* is capable of inhibiting TGF- ? activity by forming complexes with TGF- ? and thus preventing it from binding to TGF ? β receptors in cells involved. Fatty acids may potentiate TGF ? β activity by blocking complex formation of ? 2M* and TGF ? β under these conditions. To test this possibility, we determined the effects of arachidonic acid on ^125I-TGF- ? 2 binding (in the presence and absence of α2M*) to Mv1Lu cells. ? 2M* is known to inhibit TGF- ? 2 more strongly than TGF ? β1 binding to T receptors in cells (13). Various concentrations of ^125I-TGF- ? 2 were preincubated with 200 μg/ml of ? 2M* in the presence or absence of 30 μM arachidonic acid for 30 min prior to the performance of binding assays in Mv1Lu cells. […] The residual ^125I-TGF- ? binding associated with the cells after ? 2M* inhibition was mainly due to non-specific binding of ^125I-TGF- ? 2. […] In the presence of 200 μg/ml of ? 2M*, the dose-response curve of TGF ? β2 shifted to the right. […] Addition of arachidonic acid at 0.5 and 1 μM reversed the inhibitory effect of. α2M* on TGF- ? 2-induced growth inhibition as measured by [methyl-^3H]-thymidine incorporation.
# [Methyl-^3H]-Thymidine Incorporation Assay—Mv1Lu cells were plated at a cell density of 7.5×10^4 cells/well in DMEM containing 0.1% fetal calf serum in 48-well cluster dishes. After 4 hr at 37° C. (to allow cell adherence), cells were treated with various concentrations of TGF- ? 2,2M* (0 or 200 μg/ml) and arachidonic acid ([…] or 1 μM). After 1h at 37° C., cells were pulsed with 1 μCi/ml [methyl-^3H]-thymidine for 2 hr. The [methyl-^3H]-th incorporation into cellular DNA was carried out in triplicate as described previously (23).
smiles,measurement,setting,value
CCCCC/C=C\C/C=C\C/C=C\C/C=C\CCCC(=O)O [arachidonic acid],blocking of complex formation between α2M* and NGF,[1],block complex formation
same,concentration dissociating the 125I-TGF-β2-α2M* complex,125I-TGF-β2-α2M* complex,250 µM
same,reversal of the inhibitory effect of α2M* on TGF-β2-induced growth inhibition,"Mv1Lu cells; 0.5 μM arachidonic acid, 200 μg/ml α2M*",reversed
same,reversal of the inhibitory effect of α2M* on growth inhibition induced by 1 pM TGF-β2,"Mv1Lu cells; 1 μM arachidonic acid, 200 μg/ml α2M*",almost completely reversed
same,effect on growth inhibition induced by TGF-β2 in the absence of α2M*,Mv1Lu cells; absence of α2M*,did not affect growth inhibition
